The results in this text go back to patent US9656988B2 (Pharmacyclics LLC, priority 2013, dated 2017).

This assay addresses BTK (Homo sapiens (Human), UniProt Q06187). Description: Btk in vitro inhibitory activity (one of Method A TR-FRET, Method B electrophoretic mobility shift, Method C radiometric filter binding). It is filed as biochemical.
[1] abbreviates: determined using one of the methods of Example 355a, 355b and 355c, read-out: BTK IC50.

Where two headings read alike, the source gives them in different places. A value given as a limit tells only on which side of the number the result lay.

As usually defined, the IC50 is the concentration needed to halve the response being measured.

Sequence of BTK (Q06187 whole entry): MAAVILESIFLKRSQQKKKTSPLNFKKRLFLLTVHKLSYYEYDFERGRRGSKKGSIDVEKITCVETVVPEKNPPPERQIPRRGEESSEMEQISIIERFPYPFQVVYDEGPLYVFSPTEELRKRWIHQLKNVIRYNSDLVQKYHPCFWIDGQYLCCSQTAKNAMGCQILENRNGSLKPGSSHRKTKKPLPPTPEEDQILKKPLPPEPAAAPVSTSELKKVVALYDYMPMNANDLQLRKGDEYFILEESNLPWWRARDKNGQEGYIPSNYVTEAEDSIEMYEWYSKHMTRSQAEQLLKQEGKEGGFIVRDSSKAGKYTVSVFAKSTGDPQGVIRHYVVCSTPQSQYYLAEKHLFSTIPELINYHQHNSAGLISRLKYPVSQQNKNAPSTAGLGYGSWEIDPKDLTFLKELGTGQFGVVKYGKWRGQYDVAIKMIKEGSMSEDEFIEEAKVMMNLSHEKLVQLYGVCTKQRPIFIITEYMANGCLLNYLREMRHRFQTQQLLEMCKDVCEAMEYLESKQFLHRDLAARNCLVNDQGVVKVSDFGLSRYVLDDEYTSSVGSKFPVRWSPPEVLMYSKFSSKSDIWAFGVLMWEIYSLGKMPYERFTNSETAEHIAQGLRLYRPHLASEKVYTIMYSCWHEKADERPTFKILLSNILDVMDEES

Turning to `CN(C)C(=O)N1CCC[C@@H]2[C@H]1CCCN2c1cnc(C(N)=O)c(Nc2ccc(C3CCN(C4CCCC4)CC3)cc2)n1` [Example 289, (4aR,8aR)-5-(5-carbamoyl-6-(4-(1-cyclopentylpiperidin-4-yl)phenylamino)pyrazin-2-yl)-N,N-dimethyloctahydro-1,5-naphthyridine-1(2H)-carboxamide], the concentration for half-maximal inhibition (IC50) under setting [1] is 10 to 100 nM.
Regarding `C[C@@H]1CCN(c2cnc(C(N)=O)c(Nc3ccc(C4CCN(C5CCCC5)CC4)cc3)n2)C[C@@H]1NC(=O)N(C)C` [Example 290, 3-(4-(1-cyclopentylpiperidin-4-yl)phenylamino)-5-((3R,4R)-3-(3,3-dimethylureido)-4-methylpiperidin-1-yl)pyrazine-2-carboxamide], the IC50 under setting [1] was in the range of 10 to 100 nM.
Turning to `NC(=O)c1ncc(N2CCC[C@@H](NC=O)C2)nc1Nc1ccc(C2CCN(C3CCCC3)CC2)cc1` [Example 295, (R)-3-(4-(1-cyclopentylpiperidin-4-yl)phenylamino)-5-(3-formamidopiperidin-1-yl)pyrazine-2-carboxamide], the IC50 under setting [1] was less than 10 nM and the half-inhibitory concentration (IC50) (read-out: Btk (IC50)) was less than 10 nM.
Turning to `CCC(=O)N[C@@H]1CCCN(c2cnc(C(N)=O)c(Nc3ccc(C4CCN(C5CCCC5)CC4)cc3)n2)C1` [Example 296, (R)-3-(4-(1-cyclopentylpiperidin-4-yl)phenylamino)-5-(3-propionamidopiperidin-1-yl)pyrazine-2-carboxamide], the half-inhibitory concentration (IC50) under setting [1] is less than 10 nM and the 50% inhibitory concentration (IC50) (read-out: Btk (IC50)) is less than 10 nM.
On to `CCN(C)C(=O)N[C@@H]1CCCN(c2cnc(C(N)=O)c(Nc3ccc(C4CCN(C5CCCC5)CC4)cc3)n2)C1` [Example 297, (R)-3-(4-(1-cyclopentylpiperidin-4-yl)phenylamino)-5-(3-(3-ethyl-3-methylureido)piperidin-1-yl)pyrazine-2-carboxamide], for which the half-inhibitory concentration (IC50) was less than 10 nM under setting [1] and less than 10 nM (read-out: Btk (IC50)).
Turning to `CCOC(=O)N[C@@H]1CCCN(c2cnc(C(N)=O)c(Nc3ccc(C4CCN(C5CCCC5)CC4)cc3)n2)C1` [Example 298, (R)-ethyl 1-(5-carbamoyl-6-(4-(1-cyclopentylpiperidin-4-yl)phenylamino)pyrazin-2-yl)piperidin-3-ylcarbamate], the IC50 is, setting by setting: under setting [1], less than 10 nM; (read-out: Btk (IC50)) less than 10 nM.
Take `NC(=O)c1ncc(N2CCC[C@@H](NC(=O)C3CC3)C2)nc1Nc1ccc(C2CCN(C3CCCC3)CC2)cc1` [Example 299, (R)-3-(4-(1-cyclopentylpiperidin-4-yl)phenylamino)-5-(3-(cyclopropanecarboxamido)piperidin-1-yl)pyrazine-2-carboxamide]: the half-maximal inhibitory concentration (IC50) reads like this: under setting [1], less than 10 nM; (read-out: Btk (IC50)) less than 10 nM.
`CS(=O)(=O)N[C@@H]1CCCN(c2cnc(C(N)=O)c(Nc3ccc(C4CCN(C5CCCC5)CC4)cc3)n2)C1` [Example 300, (R)-3-(4-(1-cyclopentylpiperidin-4-yl)phenylamino)-5-(3-(methylsulfonamido)piperidin-1-yl)pyrazine-2-carboxamide]: the IC50 fell in the range of 10 to 100 nM (Btk (IC50)) and 10 to 100 nM under setting [1].
Take `CCS(=O)(=O)N[C@@H]1CCCN(c2cnc(C(N)=O)c(Nc3ccc(C4CCN(C5CCCC5)CC4)cc3)n2)C1` [Example 301, (R)-3-(4-(1-cyclopentylpiperidin-4-yl)phenylamino)-5-(3-(ethylsulfonamido)piperidin-1-yl)pyrazine-2-carboxamide]: the IC50 under setting [1] is 10 to 100 nM.
Turning to `CN(C)S(=O)(=O)N[C@@H]1CCCN(c2cnc(C(N)=O)c(Nc3ccc(C4CCN(C5CCCC5)CC4)cc3)n2)C1` [Example 302, (R)-3-(4-(1-cyclopentylpiperidin-4-yl)phenylamino)-5-(3-(N,N-dimethylsulfamoylamino)piperidin-1-yl)pyrazine-2-carboxamide], under setting [1], the 50% inhibitory concentration (IC50) was 10 to 100 nM.
In the case of `NC(=O)c1ncc(N2CCC[C@@H](NC(=O)c3ccccc3)C2)nc1Nc1ccc(C2CCN(C3CCCC3)CC2)cc1` [Example 303, (R)-5-(3-benzamidopiperidin-1-yl)-3-(4-(1-cyclopentylpiperidin-4-yl)phenylamino)pyrazine-2-carboxamide], the IC50 runs as follows: under setting [1], less than 10 nM; (read-out: Btk (IC50)) less than 10 nM.
For the compound `NC(=O)c1ncc(N2CCC[C@@H](NC(=O)c3cccnc3)C2)nc1Nc1ccc(C2CCN(C3CCCC3)CC2)cc1` [Example 304, (R)-3-(4-(1-cyclopentylpiperidin-4-yl)phenylamino)-5-(3-(nicotinamido)piperidin-1-yl)pyrazine-2-carboxamide], the IC50 runs as follows: under setting [1], less than 10 nM; (read-out: Btk (IC50)) less than 10 nM.
With `NC(=O)c1ncc(N2CCC[C@@H](NC(=O)c3cncc(F)c3)C2)nc1Nc1ccc(C2CCN(C3CCCC3)CC2)cc1` [Example 305, (R)-3-(4-(1-cyclopentylpiperidin-4-yl)phenylamino)-5-(3-(5-fluoronicotinamido)piperidin-1-yl)pyrazine-2-carboxamide], the 50% inhibitory concentration (IC50) was less than 10 nM under setting [1] and less than 10 nM (read-out: Btk (IC50)).
Consider `NC(=O)c1ncc(N2CCC[C@@H](N3Cc4ccccc4C3=O)C2)nc1Nc1ccc(C2CCN(C3CCCC3)CC2)cc1` [Example 307, (R)-3-(4-(1-cyclopentylpiperidin-4-yl)phenylamino)-5-(3-(1-oxoisoindolin-2-yl)piperidin-1-yl)pyrazine-2-carboxamide], for which the IC50 by setting is: under setting [1], less than 10 nM; (read-out: Btk (IC50)) less than 10 nM.
As to `NC(=O)c1ncc(N2CCC[C@@H](NC(=O)C3CC4(CCC4)C3)C2)nc1Nc1ccc(C2CCN(C3CC3)CC2)cc1` [Example 309, 3-(4-(1-cyclopropylpiperidin-4-yl)phenylamino)-5-((3R)-3-(spiro[3.3]heptane-2-carboxamido)piperidin-1-yl)pyrazine-2-carboxamide], the half-inhibitory concentration (IC50) is, setting by setting: under setting [1], 100 to 1000 nM; (read-out: Btk (IC50)) 100 to 1000 nM.
Take `NC(=O)c1ncc(N2CCC[C@@H](NC(=O)C3CCCC3)C2)nc1Nc1ccc(C2CCN(C3CC3)CC2)cc1` [Example 310, (R)-5-(3-(cyclopentanecarboxamido)piperidin-1-yl)-3-(4-(1-cyclopropylpiperidin-4-yl)phenylamino)pyrazine-2-carboxamide]: the IC50 lay in the range of 10 to 100 nM under setting [1] and 10 to 100 nM (read-out: Btk (IC50)).
For the compound `NC(=O)c1ncc(N2CCC[C@@H](NC(=O)c3ccc(Cl)cc3)C2)nc1Nc1ccc(C2CCN(C3CC3)CC2)cc1` [Example 311, (R)-5-(3-(4-chlorobenzamido)piperidin-1-yl)-3-(4-(1-cyclopropylpiperidin-4-yl)phenylamino)pyrazine-2-carboxamide], the IC50 runs as follows: under setting [1], less than 10 nM; (read-out: Btk (IC50)) less than 10 nM.
For `NC(=O)c1ncc(N2CCC[C@@H](NC(=O)c3cccc(Cl)c3)C2)nc1Nc1ccc(C2CCN(C3CC3)CC2)cc1` [Example 312, (R)-5-(3-(3-chlorobenzamido)piperidin-1-yl)-3-(4-(1-cyclopropylpiperidin-4-yl)phenylamino)pyrazine-2-carboxamide], the 50% inhibitory concentration (IC50) is less than 10 nM under setting [1] and less than 10 nM (read-out: Btk (IC50)).
In the case of `NC(=O)c1ncc(N2CCC[C@@H](NC(=O)c3cncc(Cl)c3)C2)nc1Nc1ccc(C2CCN(C3CC3)CC2)cc1` [Example 313, (R)-5-(3-(5-chloronicotinamido)piperidin-1-yl)-3-(4-(1-cyclopropylpiperidin-4-yl)phenylamino)pyrazine-2-carboxamide], the half-maximal inhibitory concentration (IC50) under setting [1] is less than 10 nM and the concentration for half-maximal inhibition (IC50) (read-out: Btk (IC50)) is less than 10 nM.
